{
  "source": "patent US20090169603A1",
  "about": "“Adhesive Pharmaceutical Preparation” (NITTO DENKO CORPORATION, priority 2005, published 2009)",
  "key": {"[1]": {"assay": "Measurement of viscosity at 40° C. (type E viscometer)", "assay_type": "physicochemical", "protocol": "Viscosity of the drug is measured using a type E viscometer while keeping the drug at a predetermined temperature. According to the invention, when the viscosity of a drug at a predetermined temperature is from 0.05 to 100,000 mPa·s, the drug is liquid at the predetermined temperature. In addition, the “logPow” is an index which expresses hydrophilic property or hydrophobicity of the drug, and is a value measured on individual drugs in accordance with the method described in “OECD GUIDELINE FOR THE TESTING OF CHEMICALS 107, Adopted by the Council on 27 Jul. 1995, Partition Coefficient (n-octanol/water), Shake Flask Method)”, and the base of logarithm of logPow is 10.\nIn addition, the viscosity of a drug at 40° C. is measured using a type E viscometer while heating the drug at 40° C.\n5. Measurement of Viscosity at 40° C.\nViscosity of drugs at 40° C. was measured using a type E viscometer (type E viscometer mfd. By Tokyo Keiki, VISCONIC Type ED)."}, "[2]": {"assay": "Measurement of logPow (OECD 107, n-octanol/water, shake flask method)", "assay_type": "physicochemical", "protocol": "In this case, the “drug which is liquid at room temperature or around room temperature” means a drug which is liquid at a temperature where the adhesive pharmaceutical preparation after its production is generally preserved, namely any temperature within a temperature range of from 1 to 40° C. Within such a temperature range, the drug has such a degree of fluidity that it can cause bleeding. Viscosity of the drug is measured using a type E viscometer while keeping the drug at a predetermined temperature. According to the invention, when the viscosity of a drug at a predetermined temperature is from 0.05 to 100,000 mPa·s, the drug is liquid at the predetermined temperature. In addition, the “logPow” is an index which expresses hydrophilic property or hydrophobicity of the drug, and is a value measured on individual drugs in accordance with the method described in “OECD GUIDELINE FOR THE TESTING OF CHEMICALS 107, Adopted by the Council on 27 Jul. 1995, Partition Coefficient (n-octanol/water), Shake Flask Method)”, and the base of logarithm of logPow is 10.\nThe “logPow” is obtained by a calculation after partitioning a drug into water layer and n-octanol layer and determining the drug concentration of each layer by an appropriate method, in accordance with the method described in the above-mentioned guideline. The quantitative determination of drugs is not particularly limited so long as it is a method in which its determinability was verified, for example, by verifying linearity of its calibration curve, but in general, an absorptiometry, a gas chromatography or a high performance liquid chromatography is used. […] In addition, when the drug is a dissociating substance, the logPow is measured while suppressing its dissociation in accordance with the guideline. That is, the logPow is measured using a buffer of appropriate pH as the water layer under a condition of a free acid or free base. When the drug is an acidic drug, a buffer having a pH value which is lower by a factor of 1 than the pKa value of the drug is used. When the drug is a basic drug, a buffer having a pH value which is higher by a factor of 1 than the pKa value of the drug is used.\nIn this connection, although the measurement range of logPow is generally set from −2 to 4 according to this guideline, the measurement range of logPow can be set to −2 to 5 by increasing the determination sensitivity by making use of high sensitivity analytical methods such as a high performance liquid chromatography.\nLogPow was measured in accordance with the “OECD GUIDELINE FOR THE TESTING OF CHEMICALS 107, Adopted by the Council on 27th Jul. 1995, Partition Coefficient (n-Octanol/water), Shake Flask Method)”. Water layers, determination methods and results of the LogPow measurement at the time of the measurement of LogPow are shown in Table 3."}, "[3]": {"conditions": "water layer pH 10 buffer, HPLC method"}},
  "note": "Read-outs that look alike come from different tables or passages of the source.",
  "data": [
    {"smiles": "CCOCCn1c(N2CCCN(C)CC2)nc2ccccc21", "note": "[Emedastine free base, emedastine free base]", "values": [
      {"measurement": "Viscosity", "setting": "[1]", "result": 280, "unit": "mPa·s"},
      {"measurement": "logD", "setting": "[2]; n-octanol/water, water layer pH 10 buffer, HPLC method", "result": 2.4},
      {"measurement": "LogPow", "setting": "[2]; [3]", "result": "base (2.4)"},
      {"measurement": "LogPow", "setting": "[2]; water layer pH 10 buffer, HPLC method, listed as emedastine free base", "result": 2.4}
    ]},
    {"smiles": "OCC(O)CO", "note": "[Glycerol]", "values": [
      {"measurement": "LogPow", "setting": "[2]; water layer distilled water, titration method", "result": "−1.1"}
    ]},
    {"smiles": "CN(C/C=C/C#CC(C)(C)C)Cc1cccc2ccccc12", "note": "[Terbinafine free base]", "values": [
      {"measurement": "Viscosity", "setting": "[1]", "result": 280, "unit": "mPa·s"},
      {"measurement": "logD", "setting": "[2]; n-octanol/water, water layer pH 9.2 buffer, HPLC method", "result": "> 5"},
      {"measurement": "LogPow", "setting": "[2]; water layer pH 9.2 buffer, HPLC method", "result": "base (>5.0)"},
      {"measurement": "LogPow", "setting": "[2]; water layer pH 9.2 buffer, HPLC method, listed as terbinafine", "result": "> 5.0"}
    ]},
    {"smiles": "COc1ccc(CCN(C)CCCC(C#N)(c2cc(OC)c(OC)c(OC)c2)C(C)C)cc1OC", "note": "(stereo not shown) [Gallopamil free base, gallopamil free base]", "values": [
      {"measurement": "Viscosity", "setting": "[1]", "result": 4500, "unit": "mPa·s"},
      {"measurement": "Viscosity", "setting": "[1]; listed as gallopamil", "result": "4,500 mPa·s"},
      {"measurement": "LogPow", "setting": "[2]; [3]", "result": 4.8}
    ]},
    {"smiles": "CC=CC(=O)N(CC)c1ccccc1C", "note": "(mixture of isomers) [Crotamiton, crotamiton]", "values": [
      {"measurement": "Viscosity", "setting": "[1]", "result": 16, "unit": "mPa·s"},
      {"measurement": "logP", "setting": "[2]; n-octanol/water, water layer distilled water, HPLC method", "result": 3.1},
      {"measurement": "LogPow", "setting": "[2]; water layer distilled water, HPLC method", "result": "Crotamiton (3.1)"},
      {"measurement": "LogPow", "setting": "[2]; water layer distilled water, HPLC method, listed as crotamiton", "result": 3.1}
    ]}
  ]
}
